Experimental data as given in patent US10201532B2, “Compounds and their use” (ALLECRA THERAPEUTICS GMBH, priority 2010, dated 2019).

Experiments:
[1] = test system: KPC-2 producing K. pneumoniae (ATCC BAA-1705); assay: Synergistic broth micro-dilution MIC (checkerboard); assay type: cell-based, Klebsiella pneumoniae; conditions: for MIC of Cefepime in combination with BLI / MIC of Cefotaxime in combination with BLI / MIC of Ceftazidime in combination with BLI / MIC of Ceftobiprole in combination with BLI / MIC of Ertapenem in combination with BLI / MIC of Faropenem in combination with BLI / MIC of Imipenem in combination with BLI / MIC of Meropenem in combination with BLI / MIC of Aztreonam in combination with BLI: ATCC BAA-1705
[2] = test system: KPC-3 expressing E. coli (J53 R6206); assay: as above; assay type: cell-based, Escherichia coli
[3] = biological target: crude KPC-3 enzyme extract (UniProt Q9F663, H272Y, species not given); assay: β-Lactamase inhibitory assay with CENTA substrate; assay type: biochemical; conditions: also headed KPC2
Text: (§1) The Compound-1 was subjected to β-lactamase inhibitory assay to determine IC50 and to compare that with the comparator BLI agents as described elsewhere (Bebrone et. al., Antimicrob. Agents. Chemother, 2001, 45(6): 1868-1871; Jamieson et. al, Antimicrob. Agents. Chemother, 2003, 47(5): 1652-1657). Briefly, enzyme extracts from KPC-2 producing and KPC-3 expressing bacterial gram negative strains were used to study the β-lactamase inhibitory activity and determination of IC50 using CENTA as the substrate for β-lactamase.

[4] = biological target: T1, crude KPC-2 enzyme extract (Klebsiella pneumoniae, UniProt Q9F663); assay: β-Lactamase inhibitory assay with CENTA substrate; assay type: biochemical
T1 construct: enzyme extracts from KPC-2 producing and KPC-3 expressing bacterial gram negative strains were used; endogenous in cells; host or cells: KPC-2 producing gram-negative strain
T1 sequence (Q9F663 25-293 limits assumed): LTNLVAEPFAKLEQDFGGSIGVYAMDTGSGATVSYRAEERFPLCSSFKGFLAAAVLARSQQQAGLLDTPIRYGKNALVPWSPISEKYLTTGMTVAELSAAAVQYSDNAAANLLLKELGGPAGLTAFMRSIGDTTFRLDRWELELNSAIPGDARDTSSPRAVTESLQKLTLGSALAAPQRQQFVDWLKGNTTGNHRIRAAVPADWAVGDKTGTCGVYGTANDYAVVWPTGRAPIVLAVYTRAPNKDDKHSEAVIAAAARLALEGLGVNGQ
Text: as §1

With `O=C(O)[C@H]1/C(=C/CO)O[C@@H]2CC(=O)N21` [Clavulanic acid] the “MIC of Cefepime in combination with BLI” value ([1]; BLI at 2 μg/mL) was 64 µg/mL, the “MIC of Cefotaxime in combination with BLI” value (“MIC of Cefotaxime” for short) ([1]; BLI at 2 μg/mL) was 32 to 64 µg/mL and the “MIC of Ceftazidime in combination with BLI” value (“MIC of Ceftazidime” for short) ([1]; BLI at 2 μg/mL) was over 64 µg/mL. For the same molecule, the “MIC of Ceftobiprole in combination with BLI” value (from here on “MIC of Ceftobiprole”) ([1]; BLI at 2 μg/mL) was over 64 µg/mL, the “MIC of Ertapenem in combination with BLI” value ([1]; BLI at 2 μg/mL) was 32 µg/mL and the “MIC of Faropenem in combination with BLI” value ([1]; BLI at 2 μg/mL) was over 64 µg/mL. For the same molecule, the “MIC of Imipenem in combination with BLI” value ([1]; BLI at 2 μg/mL) was 8 to 16 µg/mL, the “MIC of Meropenem in combination with BLI” value ([1]; BLI at 2 μg/mL) was 16 µg/mL and the “MIC of Aztreonam in combination with BLI” value ([1]; BLI at 4 μg/mL) was over 64 µg/mL. The “MIC of Cefepime in combination with BLI” value ([1]; BLI at 4 μg/mL) was 64 µg/mL, the “MIC of Cefotaxime” value ([1]; BLI at 4 μg/mL) was 32 to 64 µg/mL and the “MIC of Ceftazidime” value ([1]; BLI at 4 μg/mL) was over 64 µg/mL. The “MIC of Ceftobiprole” value ([1]; BLI at 4 μg/mL) was over 64 µg/mL, the “MIC of Ertapenem in combination with BLI” value ([1]; BLI at 4 μg/mL) was 64 µg/mL and the “MIC of Faropenem in combination with BLI” value ([1]; BLI at 4 μg/mL) was over 64 µg/mL. The “MIC of Imipenem in combination with BLI” value ([1]; BLI at 4 μg/mL) was 8 to 16 µg/mL, the “MIC of Meropenem in combination with BLI” value ([1]; BLI at 4 μg/mL) was 4 to 8 µg/mL and the “MIC of Cefepime in combination with BLI” value ([1]; BLI at 8 μg/mL) was 32 µg/mL. The “MIC of Cefotaxime” value ([1]; BLI at 8 μg/mL) was 16 to 32 µg/mL, the “MIC of Ceftazidime” value ([1]; BLI at 8 μg/mL) was over 64 µg/mL and the “MIC of Ceftobiprole” value ([1]; BLI at 8 μg/mL) was over 64 µg/mL. The “MIC of Imipenem in combination with BLI” value ([1]; BLI at 8 μg/mL) was 4 to 8 µg/mL, the “MIC of Meropenem in combination with BLI” value ([1]; BLI at 8 μg/mL) was 4 µg/mL and the “MIC of Aztreonam in combination with BLI” value ([1]; BLI at 16 μg/mL) was over 64 µg/mL. The “MIC of Cefepime in combination with BLI” value ([1]; BLI at 16 μg/mL) was 32 µg/mL, the “MIC of Cefotaxime” value ([1]; BLI at 16 μg/mL) was 16 µg/mL and the “MIC of Ceftazidime” value ([1]; BLI at 16 μg/mL) was 64 µg/mL. The “MIC of Ceftobiprole” value ([1]; BLI at 16 μg/mL) was over 64 µg/mL, the “MIC of Ertapenem in combination with BLI” value ([1]; BLI at 16 μg/mL) was 32 µg/mL and the “MIC of Faropenem in combination with BLI” value ([1]; BLI at 16 μg/mL) was over 64 µg/mL. For the same molecule, the “MIC of Imipenem in combination with BLI” value ([1]; BLI at 16 μg/mL) was 2 µg/mL, the “MIC of Meropenem in combination with BLI” value ([1]; BLI at 16 μg/mL) was 4 µg/mL and the “MIC of Aztreonam in combination with BLI” value ([1]; BLI at 64 μg/mL) was 64 µg/mL. For the same molecule, the “MIC of Cefepime in combination with BLI” value ([1]; BLI at 64 μg/mL) was 8 µg/mL, the “MIC of Cefotaxime” value ([1]; BLI at 64 μg/mL) was 8 µg/mL and the “MIC of Ceftazidime” value ([1]; BLI at 64 μg/mL) was 16 µg/mL. The “MIC of Ceftobiprole” value ([1]; BLI at 64 μg/mL) was 64 µg/mL, the “MIC of Ertapenem in combination with BLI” value ([1]; BLI at 64 μg/mL) was 8 µg/mL and the “MIC of Faropenem in combination with BLI” value ([1]; BLI at 64 μg/mL) was over 64 µg/mL. The “MIC of Imipenem in combination with BLI” value ([1]; BLI at 64 μg/mL) was under 0.5 µg/mL, the “MIC of Meropenem in combination with BLI” value ([1]; BLI at 64 μg/mL) was 2 µg/mL and the MIC ([1]; Klebsiella pneumoniae, ATCCBAA1705, read-out: MIC of BLI alone) was over 64 µg/mL. For the same molecule, the “MIC of Cefepime in combination with BLI” value ([2]; BLI at 2 μg/mL) was 8 µg/mL, the “MIC of Cefotaxime” value ([2]; BLI at 2 μg/mL) was 4 µg/mL and the “MIC of Ceftazidime” value ([2]; BLI at 2 μg/mL) was 32 µg/mL. The “MIC of Ceftobiprole” value ([2]; BLI at 2 μg/mL) was 8 µg/mL, the “MIC of Imipenem in combination with BLI” value ([2]; BLI at 2 μg/mL) was 1 µg/mL and the “MIC of Meropenem in combination with BLI” value ([2]; BLI at 2 μg/mL) was 1 µg/mL. The “MIC of Cefepime in combination with BLI” value ([2]; BLI at 4 μg/mL) was 8 µg/mL, the “MIC of Cefotaxime” value ([2]; BLI at 4 μg/mL) was 1 µg/mL and the “MIC of Ceftazidime” value ([2]; BLI at 4 μg/mL) was 32 µg/mL. For the same molecule, the “MIC of Ceftobiprole” value ([2]; BLI at 4 μg/mL) was 8 µg/mL, the “MIC of Imipenem in combination with BLI” value ([2]; BLI at 4 μg/mL) was 1 µg/mL and the “MIC of Meropenem in combination with BLI” value ([2]; BLI at 4 μg/mL) was 1 µg/mL. The “MIC of Cefepime in combination with BLI” value ([2]; BLI at 8 μg/mL) was 1 µg/mL, the “MIC of Cefotaxime” value ([2]; BLI at 8 μg/mL) was under 0.25 µg/mL and the “MIC of Ceftazidime” value ([2]; BLI at 8 μg/mL) was 8 µg/mL. For the same molecule, the “MIC of Ceftobiprole” value ([2]; BLI at 8 μg/mL) was 2 µg/mL, the “MIC of Imipenem in combination with BLI” value ([2]; BLI at 8 μg/mL) was 0.5 µg/mL and the “MIC of Meropenem in combination with BLI” value ([2]; BLI at 8 μg/mL) was 0.5 µg/mL. The MIC ([2]; Escherichia coli, read-out: MIC of BLI alone, BLI alone) was over 8 µg/mL, the IC50 [3] was 92 µM and the IC50 [4] was 330 µM.
